Data taken from publication PMC2653417 (Bioorganic & medicinal chemistry letters, 2008).
pIC50: −log10 of the molar value.

Tests used:
[1] = tested on: HER2 over-expressing SKBr3 breast cancer cells; test: cell growth inhibition assay; type: cell-based; conditions: Homo sapiens, SK-BR-3, 72 h, read-out: IC50 SKBr3
Hsp90 [2] = target: T1, Hsp90 (Homo sapiens, UniProt P07900); test: fluorescent polarization
Raf-1 = test: Western blot assay, client protein degradation; type: cell-based
PRAS40 = test: Western blot assay, client protein degradation; type: cell-based
[3] = read-out: IC50 cell growth inhibition; cited from earlier work
Hsp90 [4] = target: T1, Hsp90; conditions: cited from earlier work
Hsp90 [5] = target: T1, Hsp90; conditions: cited from earlier work; remark: listed apart in the source

Row | Compound | pIC50 [1] | effect on Raf-1 degradation (Raf-1) | effect on PRAS40 degradation (PRAS40) | also measured
1 | O=S(=O)(Nc1ccc(O)c(-c2c(O)ccc3c2OCO3)c1)c1cc(Cl)ccc1Cl [Compound 17] | 5.36 | – | – | –
2 | O=S(=O)(Nc1ccc(O)c(-c2ccccc2O)c1)c1cc(Cl)ccc1Cl [Compound 9a] | – | – | – | fold less activity than 2 in FP assay (Hsp90 [2]; relative to compound 2): about 20 fold
3 | COc1ccc(O)c(O)c1-c1cc(NS(=O)(=O)c2cc(Cl)ccc2Cl)ccc1N [Compound 13] | 5.22 | neither had any effect | neither had any effect | IC50 FP (Hsp90 [2]; mean of 2 independent determinations, maximum concentration tested 50 µM): sub-micromolar
4 | O=S(=O)(Nc1ccc(O)c(-c2c(O)ccc3ccccc23)c1)c1cc(Cl)ccc1Cl [Compound 2] | 5.19 | neither had any effect | neither had any effect | pIC50 [3]: 4.54
5 | O=S(=O)(Nc1ccc(O)c(-c2c(O)ccc3ccccc23)c1)c1ccccc1 [Compound 1] | – | – | – | activity in malachite green assay (Hsp90 [4]): low micromolar activity; activity in FP assay (Hsp90 [5]): low micromolar activity
